# Source: PubChem BioAssay (NCI)
#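 Method: 48-hour compound exposure of cells in 96-well plates, five concentrations, linear interpolation of endpoints. GI50: concentration for 50% inhibition of growth. TGI: total growth inhibition.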
# Tests used:
# Assay in all cases: inhibition of tumour cell growth, NCI panel, 48 h
# SNB-19 CNS = tested on: SNB-19 CNS
# OVCAR-4 ovarian = tested on: OVCAR-4 ovarian
# RXF 393 renal = tested on: RXF 393 renal
# K-562 leukemia = tested on: K-562 leukemia
# OVCAR-3 ovarian = tested on: OVCAR-3 ovarian
# HCT-15 colon = tested on: HCT-15 colon
# TK-10 renal = tested on: TK-10 renal
# DU-145 prostate = tested on: DU-145 prostate
# HCT-116 colon = tested on: HCT-116 colon
# CAKI-1 renal = tested on: CAKI-1 renal
# LOX IMVI melanoma = tested on: LOX IMVI melanoma
# OVCAR-5 ovarian = tested on: OVCAR-5 ovarian
# EKVX NSCLC = tested on: EKVX NSCLC
# MCF7 breast = tested on: MCF7 breast
# HOP-92 NSCLC = tested on: HOP-92 NSCLC
# SK-MEL-5 melanoma = tested on: SK-MEL-5 melanoma
# NCI-H226 lung = tested on: NCI-H226 lung
# SF-539 CNS = tested on: SF-539 CNS
# HOP-62 NSCLC = tested on: HOP-62 NSCLC
# MDA-MB-435 = tested on: MDA-MB-435
# A549 NSCLC = tested on: A549 NSCLC
# MALME-3M melanoma = tested on: MALME-3M melanoma
# RPMI-8226 leukemia = tested on: RPMI-8226 leukemia
# SW-620 colon = tested on: SW-620 colon
# UACC-62 melanoma = tested on: UACC-62 melanoma
# NCI-H23 lung = tested on: NCI-H23 lung
# UACC-257 melanoma = tested on: UACC-257 melanoma
# T-47D breast = tested on: T-47D breast
# IGROV1 ovarian = tested on: IGROV1 ovarian
# SF-268 CNS = tested on: SF-268 CNS
# NCI-H522 lung = tested on: NCI-H522 lung
# M14 melanoma = tested on: M14 melanoma
# SK-MEL-28 melanoma = tested on: SK-MEL-28 melanoma
# PC-3 prostate = tested on: PC-3 prostate
# A498 renal = tested on: A498 renal
# KM12 colon = tested on: KM12 colon
# HCC-2998 colon = tested on: HCC-2998 colon
# SK-OV-3 ovarian = tested on: SK-OV-3 ovarian
# NCI/ADR-RES ovarian = tested on: NCI/ADR-RES ovarian
# HS 578T breast = tested on: HS 578T breast
# MDA-MB-231 breast = tested on: MDA-MB-231 breast
# UO-31 renal = tested on: UO-31 renal
# BT-549 breast = tested on: BT-549 breast
# HT29 colon = tested on: HT29 colon
# SNB-75 CNS = tested on: SNB-75 CNS
# SK-MEL-2 melanoma = tested on: SK-MEL-2 melanoma
# SF-295 CNS = tested on: SF-295 CNS
# U251 CNS = tested on: U251 CNS
# SN12C renal = tested on: SN12C renal
structure (smiles),measurement,setting,value
C[C@@]12CC[C@@H](O)C[C@@H]1CC[C@H]1[C@H]2CC[C@@]2(C)[C@H](c3ccc(=O)oc3)CC[C@@]12O,GI50,SNB-19 CNS,< 10.4 nM
same,TGI,SNB-19 CNS,75.5 nM
same,GI50,OVCAR-4 ovarian,< 12.4 nM
same,TGI,OVCAR-4 ovarian,63.9 nM
same,GI50,RXF 393 renal,< 10 nM
same,GI50,K-562 leukemia,< 10 nM
same,TGI,K-562 leukemia,30.9 nM
same,GI50,OVCAR-3 ovarian,< 10 nM
same,TGI,OVCAR-3 ovarian,26.8 nM
same,GI50,HCT-15 colon,< 10 nM
same,TGI,HCT-15 colon,29.2 nM
same,GI50,TK-10 renal,< 10 nM
same,TGI,TK-10 renal,28 nM
same,GI50,DU-145 prostate,< 10 nM
same,TGI,DU-145 prostate,16.8 nM
same,GI50,HCT-116 colon,< 10 nM
same,TGI,HCT-116 colon,12.2 nM
same,GI50,CAKI-1 renal,< 10 nM
same,TGI,CAKI-1 renal,14.8 nM
same,GI50,LOX IMVI melanoma,< 10 nM
same,TGI,LOX IMVI melanoma,16.9 nM
same,GI50,OVCAR-5 ovarian,13.2 nM
same,TGI,OVCAR-5 ovarian,42.6 nM
same,GI50,EKVX NSCLC,< 10 nM
same,TGI,EKVX NSCLC,10.4 nM
same,GI50,MCF7 breast,< 10 nM
same,TGI,MCF7 breast,93.2 nM
same,GI50,HOP-92 NSCLC,< 10 nM
same,TGI,HOP-92 NSCLC,57.1 nM
same,GI50,SK-MEL-5 melanoma,< 10 nM
same,TGI,SK-MEL-5 melanoma,14.1 nM
same,GI50,NCI-H226 lung,< 18.3 nM
same,TGI,NCI-H226 lung,72.3 nM
same,GI50,SF-539 CNS,< 10 nM
same,TGI,SF-539 CNS,13.7 nM
same,GI50,HOP-62 NSCLC,< 10 nM
same,TGI,HOP-62 NSCLC,15.6 nM
same,GI50,MDA-MB-435,< 10 nM
same,TGI,MDA-MB-435,58.7 nM
same,GI50,A549 NSCLC,< 10 nM
same,GI50,MALME-3M melanoma,< 10 nM
same,TGI,MALME-3M melanoma,17.4 nM
same,GI50,RPMI-8226 leukemia,< 10 nM
same,GI50,SW-620 colon,< 10 nM
same,TGI,SW-620 colon,18 nM
same,GI50,UACC-62 melanoma,< 13.5 nM
same,TGI,UACC-62 melanoma,43.5 nM
same,GI50,NCI-H23 lung,< 10 nM
same,TGI,NCI-H23 lung,22.6 nM
same,GI50,UACC-257 melanoma,< 13.5 nM
same,TGI,UACC-257 melanoma,46.7 nM
same,GI50,T-47D breast,< 10 nM
same,TGI,T-47D breast,57.7 nM
same,GI50,IGROV1 ovarian,< 10 nM
same,TGI,IGROV1 ovarian,171 nM
same,GI50,SF-268 CNS,< 10 nM
same,TGI,SF-268 CNS,34.4 nM
same,GI50,NCI-H522 lung,< 10 nM
same,TGI,NCI-H522 lung,21 nM
same,GI50,M14 melanoma,< 10 nM
same,TGI,M14 melanoma,56.4 nM
same,GI50,SK-MEL-28 melanoma,< 14.1 nM
same,TGI,SK-MEL-28 melanoma,119 nM
same,GI50,PC-3 prostate,< 10 nM
same,TGI,PC-3 prostate,20.9 nM
same,GI50,A498 renal,< 10 nM
same,TGI,A498 renal,44.5 nM
same,GI50,KM12 colon,< 12.3 nM
same,TGI,KM12 colon,153 nM
same,GI50,HCC-2998 colon,12.4 nM
same,TGI,HCC-2998 colon,142 nM
same,GI50,SK-OV-3 ovarian,< 11.8 nM
same,TGI,SK-OV-3 ovarian,45.1 nM
same,GI50,NCI/ADR-RES ovarian,< 10 nM
same,TGI,NCI/ADR-RES ovarian,28.5 nM
same,GI50,HS 578T breast,< 10 nM
same,TGI,HS 578T breast,35.1 nM
same,GI50,MDA-MB-231 breast,19.2 nM
same,TGI,MDA-MB-231 breast,116 nM
same,GI50,UO-31 renal,< 10 nM
same,TGI,UO-31 renal,14.7 nM
same,GI50,BT-549 breast,< 10 nM
same,TGI,BT-549 breast,10.4 nM
same,GI50,HT29 colon,< 10 nM
same,TGI,HT29 colon,46.7 nM
same,GI50,SNB-75 CNS,< 10 nM
same,TGI,SNB-75 CNS,26.3 nM
same,GI50,SK-MEL-2 melanoma,< 10 nM
same,TGI,SK-MEL-2 melanoma,29.9 nM
same,GI50,SF-295 CNS,< 10 nM
same,TGI,SF-295 CNS,25 nM
same,GI50,U251 CNS,< 10 nM
same,TGI,U251 CNS,36.3 nM
same,GI50,SN12C renal,< 10 nM
same,TGI,SN12C renal,27.2 nM
